Measurements from patent US9801922B2, “Compositions and methods of treating cancer” (UNIVERSITY OF IOWA RESEARCH FOUNDATION, priority 2011, dated 2017).

Columns and labels:
[1] = tested on: SUM159 human breast cancer cells; assay: ALDEFLUOR assay of ALDH positive (cancer stem) cell fraction; type: cell-based; conditions: for percentage of ALDH positive cell population: 100 μM BSO, 1 μM DTPP 24 h, 500 nM AUR 15 min, control 2.61%; for ALDH positive cell population decreased to (relative to control): single agent
Description: FIG. 16: The fraction of Aldehyde dehydrogenase activity positive (ALDH+) cancer cells (also known as early progenitor cancer stem cells) is decreased in SUM159 human breast cancer cells treated with inhibitors of glutathione and thioredoxin metabolism (BSO, AUR, respectively) combined with DTPP. Asynchronously growing cultures of SUM159 were incubated with 100 μM BSO and/or 1 μM DTPP for 24 hours in HMEC media. 500 nM AUR were added into cell culture 15 minutes before the assay. Monolayer cultures were harvested and trypsinized, washed once with PBS and labeled 40 minutes in PBS at 37° C. with BAAA (1 μmol/1 per 1 x 10^6 cells). The negative controls were also added with 50mmol/L diethylaminobenzaldehyde (DEAB). After labeling, Hochest dye for viability assay was added and then kept on ice. Each sample was then analyzed for the ALDH positive cell percentage of 100,000 cells by flow cytometry. Errors represent Mean ±1 SD of 3 samples from two separate experiments […], * p <0.05 as compared to Control.
Estimation of Cancer stem cell fractions using the Aldefluor assay: The ALDEFLUOR kit (StemCell Technologies, Durham, N.C., USA) was used to determine the subpopulation of cancer cells with a high ALDH enzymatic activity. SUM159 human breast cancer cells were plated and treated as described earlier in clonogenic survival experiment. After the exposure, the cells were trypsinized and washed with PBS once then re-suspended in ALDEFLUOR assay buffer containing ALDH substrate (BAAA, 1 μmol/l per 1×10^6 cells) and incubated for 40 minutes at 37° C. As negative control, for each sample of cells an aliquot was treated with 50 mmol/L diethylaminobenzaldehyde (DEAB), a specific ALDH inhibitor. In order to sort out non-viable cells, each sample received 4 μg/ml of Hoechst 33258 (Molecular Probes, Invitrogen). Cells were filtered through […] and kept on ice until analysis. Samples were analyzed by using a Becton Dickinson LSR II with 355 nm, 488 nm, and 633 nm lasers. (Becton Dickinson Immunocytometry System, INC., Mountain View, Calif.). The ALDH positive cells of 100,000 cells were determined by using the sorting gate established with DEAB negative control and Hochest viability control. The ALDH positive cells were represented by percentage of total 100,000 cell events.

SUM159 cells = assay: Glutathione analysis (total GSH, GSSG); type: cell-based, human; conditions: for % GSSG: untreated 1.13%
Description: FIG. 18: Intracellular GSH&GSSG measured in BSO, DTPP, and AUR exposed SUM159 cells. Asynchronously growing cultures of SUM159 were plated and treated as described in FIG. 1. Cells were harvested and scraped in PBS at 4° C. Whole cell homogenates were used for biochemical analysis of total GSH & GSSG levels. Errors represent Mean ±1 SD of 4 samples from two separate experiments (n=4).
Glutathione analysis: SUM159 Cells were plated and treated with BSO, DTPP and AUR as described above. When cells were grown to 70-80% confluency on 100 mm dishes and scraped in PBS at 4° C., centrifuged, and the cell pellets were frozen at −20° C. until analysis. Samples were thawed and whole homogenates were prepared as described and total glutathione (GSH+GSSG) was determined using a recycling method (Spitz, D. R.; Malcolm, R. R.; Roberts, R. J. Cytotoxicity and metabolism of 4-hydroxy-2-nonenal and 2-nonenal in H2O2-resistant cell lines. Do aldehydic by-products of lipid peroxidation contribute to oxidative stress? Biochem J 267:453-459; 1990; Griffith, O. W. Determination of glutathione and glutathione disulfide using glutathione reductase and 2-vinylpyridine. Anal Biochem 106:207-212; 1980). All biochemical determinations were normalized to the protein content using the method of bicinchoninic acid protein assay.

[2] = tested on: thioredoxin reductase (TRR); assay: Thioredoxin reductase activity assay in treated SUM159 cells; type: cell-based, human; conditions: for TRR activity: control 135
Description: FIG. 8: Intracellular thioredoxin reductase (TRR) activity measured in BSO, DTPP, and AUR exposed SUM159 cells. Asynchronously growing cultures of SUM159 were plated and treated as described in FIG. 1. Cells were harvested and scraped in PBS at 4° C. Whole cell homogenates were used for biochemical analysis of thioredoxin reductase activity. Errors represent Mean±1 SD of 4 samples from two separate experiments (n=4). *p<0.001 as compared to Control.
Thioredoxin Reductase Assay: Thioredoxin Reductase activity was measured by using Thioredoxin Reductase Assay Kit purchased from Sigma (St Louis, Mo.). 400,000 cells/100 mm dishes of SUM159 cells were plated and treated with BSO, DTPP and AUR as described above. When cells were grown to 70-80% confluency on 100 mm dishes and scraped in PBS at 4° C., centrifuged, and the cell pellets were frozen at −20° C. until analysis. The assay was performed according to manufacturer's instructions. Briefly, working buffer containing 100 mM KPO4, pH 7.0, 10 mM EDTA, and 0.24 mM NADPH was prepared, and samples were added with working buffer along with 5,5′-dithiobis-(2-nitrobenzoic acid) (Eliman's reagent, DTNB). The rate of DTNB's reduction to 2-nitro-5-thiobenzoate (TNB) was then measured spectrophotometrically at […]. For each sample, this reaction was replicated, in tandem, with the sample in the presence of an inhibitor to thioredoxin reductase (TrxR), included with the kit. The difference between the sample rate with and without the TrxR inhibitor was taken to be the difference caused by TrxR activity in the sample. Each sample was then normalized to protein, by using the Lowry protein assay, as described previously (Lowry, O. H.; Rosebrough, N.J.; Farr, A. L.; Randall, R. J. Protein measurement with the Folin phenol reagent. J Biol Chem 193:265-275; 1951). The thioredoxin reductase activity of each sample was then normalized as a percentage of that of the control cells.

Compound	effect on ALDH positive cell population, in words ([1]; 100 μM BSO 24 h)	total GSH, in words (SUM159 cells; 24 hours)	% GSSG (SUM159 cells) [%]	effect on TRR activity, in words [2]	percentage of ALDH positive cell population [1] [%]	ALDH positive cell population decreased to (relative to control) [1]	increase in GSSG and % GSSG compared to untreated cells (SUM159 cells) [fold]	GSSG (SUM159 cells; untreated 0.06) [nmole GSSG/mg protein]	increase of TRR activity [2] [fold]	TRR activity ([2]; 1 μM DTPP 24 h) [mU/mg]	effect on glutathione metabolism, in words (SUM159 cells)	TRR activity ([2]; 500 nM AUR 15 min) [mU/mg protein]
CCCCS(=N)(=O)CCC(N)C(=O)O [BSO, L-buthionine-[S,R]-sulfoximine, reference compound]	not able to decrease the ALDH positive cell population	significant decreases in total GSH	4.88	not capable of altering the TRR activity	–	–	–	–	–	–	–	–
CCCCCCCCCC[P+](c1ccccc1)(c1ccccc1)c1ccccc1 [DTPP, Decyl-Triphenylphosphonium]	–	–	3.65	–	1.16	around 50%	~3	0.26	2	311	–	–
CC[PH](CC)(CC)[Au][S][C@@H]1O[C@H](COC(C)=O)[C@@H](OC(C)=O)[C@H](OC(C)=O)[C@H]1OC(C)=O [AUR, S-triethylphosphinegold(I)-2,3,4,6-tetra-O-acetyl-1-thio-β-D-glucopyranoside]	–	–	–	–	1.11	around 50%	–	–	–	–	not capable of altering the glutathione metabolism	10
